From publication PMC6910946, “Multiple roles of Bet v 1 ligands in allergen stabilization and modulation of endosomal protease activity” (Allergy, 2019)
Where two headings read alike, the source gives them in different places.

Key:
[1] = target: T1, Bet v 1 / human cathepsin S (Betula pendula, UniProt P15494); experiment: Bet v 1 in vitro proteolytic degradation assay with cathepsin S; format: biochemical; settings: Bet v 1 20 µM, ligand 100 µM, cathepsin S 1 µM, pH 5.0, 0-24 h, SDS-PAGE
T1 construct: made in house
T1 sequence (P15494 2-160 limits assumed): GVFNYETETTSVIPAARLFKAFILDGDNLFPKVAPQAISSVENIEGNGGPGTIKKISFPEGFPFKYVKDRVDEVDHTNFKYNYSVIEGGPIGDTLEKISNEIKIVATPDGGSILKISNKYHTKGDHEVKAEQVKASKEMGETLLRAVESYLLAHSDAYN
Protocol: (§1) The endolysosomal degradation assay was performed with ligand‐bound (either DOC, PPE1, or Q3OS in 10× molar excess) and Bet_v_1 without ligands (apo‐Bet_v_1) as previously described.21 Recombinant human cathepsin S and human legumain were used in proteolytic degradation assays. Experimental details are described in the Appendix [Link], [Link].
(§2) Recombinant human cathepsin S and human legumain were heterologously expressed and purified as described previously.^9,10 Bet v 1 (20 µM) was incubated with ligand (100 µM) in digestion buffer (0.1 M sodium acetate, pH 5.0, 0.1 M sodium chloride, 5 mM EDTA, and 2 mM DTT) at room temperature prior to the addition of cathepsin S (1 µM) or legumain (2 µM). […] At each time point, the reaction was halted by the addition of E64 (for cathepsin S) or YVAD-CMK (for legumain) at a final concentration of 50 µM, and analyzed by SDS-PAGE. Control reactions without the addition of protease were performed. The generated peptides were analyzed using mass spectrometry.

Bet v 1 / human legumain = target: T2, Bet v 1 / human legumain (Betula pendula, UniProt P15494); experiment: Bet v 1 in vitro proteolytic degradation assay with legumain; format: biochemical; settings: Bet v 1 20 µM, ligand 100 µM, legumain 2 µM, pH 5.0, 0-24 h, SDS-PAGE
T2 construct: made in house
T2 sequence (P15494 2-160 limits assumed): T1 sequence (P15494 2-160 limits assumed)
Protocol: as §1, §2

cathepsin S = target: T3, cathepsin S (Homo sapiens, UniProt P25774); experiment: Enzymatic activity assay, fluorogenic substrate Z-VVR-AMC; format: biochemical
T3 construct: made in house
T3 sequence (P25774 115-331): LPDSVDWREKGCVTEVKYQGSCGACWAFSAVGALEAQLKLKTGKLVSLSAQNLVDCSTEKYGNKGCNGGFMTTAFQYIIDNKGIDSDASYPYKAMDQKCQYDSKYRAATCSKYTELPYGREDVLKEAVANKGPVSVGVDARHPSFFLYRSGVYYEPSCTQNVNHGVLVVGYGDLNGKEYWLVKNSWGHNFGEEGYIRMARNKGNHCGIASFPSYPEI
Protocol: To evaluate the influence of Bet_v_1 ligands on cathepsin S and legumain activities, 10 nmol/L of protease was incubated with 100 µmol/L of ligand (unless otherwise stated) and 50 µmol/L of fluorogenic substrate in digestion buffer (0.1 mol/L sodium acetate pH 5.0, 0.1 mol/L sodium chloride, 5 mmol/L EDTA, and 2 mmol/L DTT), as described in the Appendix [Link], [Link]. The effect of birch pollen extract (BPE) (20‐200 µg/mL) on the cathepsin S and legumain activities was assessed in parallel. The inhibitory effect of PPE1 was assessed by replacing DTT with 0.5 mmol/L TCEP. Activities of recombinant rat cathepsin B (provided by Dr Lukas Mach) and papain (Merck) at 10 nmol/L were assayed using Z‐FR‐AMC (Bachem) as a fluorogenic substrate.
For the detection of cathepsin or legumain activities in the microsomal fraction, 8 µg of microsomal extract was incubated with 50 µM fluorogenic substrate with or without inhibitor in assay buffer (100 mM citrate pH 4.8 and 2 mM DTT). The enzymatic reactions were carried out in a 50 µL reaction volume in a 96-half-well black flat bottom assay plate (Corning Inc., Corning, NY, USA) at 37°C. The fluorescence signal was recorded using a Tecan Infinite-200 plate reader (Tecan, Männedorf, Switzerland) at an excitation wavelength of 380 nm and emission wavelength of 460 nm for 15 min of continuous measurement with a 30-s interval reading. The fluorogenic substrates used for cathepsin S and legumain were Z-VVR-AMC and Z-AAN-AMC (Bachem, Bubendorf, Switzerland), respectively. The inhibitors used for cathepsin S and legumain were Z-FL-COCHO (Sigma-Aldrich, CA, USA) and Ac-YVAD-CMK (Bachem), respectively^11.

Bet_v_1 [2] = target: T4, Bet_v_1 (Betula pendula, UniProt P15494); experiment: Surface acoustic wave (SAW) interaction studies, determination of Kd; format: binding
T4 construct: made in house
T4 sequence (P15494 1-160): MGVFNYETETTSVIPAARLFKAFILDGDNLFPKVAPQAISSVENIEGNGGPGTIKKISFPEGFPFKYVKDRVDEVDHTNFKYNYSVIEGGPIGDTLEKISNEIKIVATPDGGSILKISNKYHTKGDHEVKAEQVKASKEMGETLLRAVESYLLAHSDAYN
Source text: (§3) Surface acoustic wave (SAW) technology and NMR spectroscopy were used to observe the interaction of Bet_v_1 with the selected compounds, including determination of the dissociation constant (K d). The influence of ligand binding on the secondary structure elements and the thermal stability of Bet_v_1 was monitored using circular dichroism (CD, JASCO J‐815 spectropolarimeter, Jasco) and Fourier transform infrared (FTIR) spectroscopy (Tensor II FTIR system, Bruker Optics Inc). A detailed description of these methods is available (Appendix [Link], [Link]).
To assess the interactions between Bet_v_1 and Q3OS, DOC, PPE1, LTA, or LPS, we determined the dissociation constants (K d) using SAW binding assays (Table 1, Figure S1), a more quantitative approach than previously described qualitative assays.11, 25 In addition, the LPS‐substructure Kdo2‐Lipid A (Kdo2) was used for binding studies, due to its more homogenous structure but similar immune stimulatory activity when compared to native LPS.
For the determination of the affinity constant Kd, we used surface acoustic wave (SAW) technology. The interaction of the six ligands with Bet v 1 was investigated using a sam® 5BLUE biosensor instrument (Nanotemper, Munich, Germany). Bet v 1 was immobilized in PBS on the surface of a SAW CM-Dextran 3D sensor chip. […] For calculating the affinity constant Kd, different concentrations of the ligands dissolved in a 5 mM sodium phosphate buffer, pH 7.4, were applied to the Bet v 1-coupled chip. Depending on the ligand, the concentration range of the injected ligand varied between 5 µM and 500 µM. For the removal of residual ligand between the sample injections, the chip was washed with regeneration buffer (10 mM citric acid buffer, pH 2.8). The recorded SAW phase changes were analyzed using the software TraceDrawer 1.7 (Ridgeview Instruments, Uppsala, Sweden). The affinity constant Kd was calculated by kinetic evaluation and affinity/EC50 estimation. For kinetic evaluation, an OneToOne curve fit was chosen to match the raw data. Experiments were performed with two coated chips in duplicate, and the coupling efficiency was evaluated using a mouse monoclonal anti-Bet v 1 antibody.

Bet_v_1 [3] = target: T4, Bet_v_1; experiment: NMR spectroscopy (1H-15N HSQC) binding confirmation; settings: for NMR (binding confirmation, K d): 15N-labeled Bet v 1, direct measurement of Kd prevented by intermediate exchange; for specific binding to Bet v 1 (1H-15N HSQC spectra): absence vs presence of compound
Source text: as §3
To validate the interactions determined by SAW, we used NMR spectroscopy to test the specific binding of PPE1, LTA, LPS, and Kdo2 to Bet_v_1 (Table 1, Figure S2). […] The commercially available PPA1 was used as a substitute for PPE1 to identify the phytoprostane binding site(s).
The NMR data were acquired with either a 600 or 800 MHz Agilent DD2 spectrometer with a cryogenically cooled probe using the pulse sequence gNhsqc. Bet v 1 assignments were taken from.^2 The experiments were performed under the following conditions: LTA: 45 µM Bet v 1 and 300 µM LTA in PBS, 10% ^2H2O, 60 µM DSS; PPE1: 25 µM Bet v 1 and 2 µM PPE1 in PBS, 5% ^2H-(d6) DMSO, 10% ^2H2O, 60 µM DSS; PPA1: 100 µM Bet v 1 and 302 µM PPA1 (Cayman Chemical, MI, USA) in PBS, 8.7% ^2H-(d6) DMSO, 10% ^2H2O, 60 µM DSS; LPS: 100 µM Bet v 1 and 400 µM LPS in PBS pH 7.4, 10% ^2H2O, 60 µM DSS. Kdo2: 100 µM Bet v 1 and 422 µM Kdo2 in PBS pH 7.0, 10% ^2H2O, 8.6% ^2H-(d6) DMSO, 60 µM DSS.

Bet_v_1 [4] = target: T4, Bet_v_1; experiment: LPS pull-down assay; format: binding, Betula verrucosa; settings: LPS immobilized on Strep‐Tactin Sepharose beads
Protocol: To investigate whether Bet v 1 binds LPS, a pull-down assay using biotinylated ultrapure E. coli O111:B4 LPS (InvivoGen, San Diego, CA, USA) was performed as previously described.^3 In short, biotinylated LPS was immobilized on Strep-Tactin Sepharose beads (IBA Lifesciences, Göttingen, Germany) and incubated with Bet v 1 for 20 min at room temperature. Unbound protein was washed off and beads were analyzed by SDS-PAGE. As control, the individual components (Bet v 1, biotinylated LPS and Strep-Tactin Sepharose beads), and Bet v 1+beads to exclude unspecific binding, were analyzed.

Bet_v_1 [5] = target: T4, Bet_v_1; settings: read-out: K d of ANS, previously published; cited from earlier work
[6] = Bet v 1 immobilized on chip, ligands in 5 mM sodium phosphate buffer pH 7.4, read-out: Binding affinity K d (SAW)
[7] = Fig. S1 sensorgrams, read-out: Kd (SAW, Fig. S1)

| Compound | processing (degradation) of Bet v 1 by cathepsin S [1] | processing (degradation) of Bet v 1 by legumain (Bet v 1 / human legumain) | Kd (Bet_v_1 [2]; [6]) | Kd (Bet_v_1 [2]; [7]) | NMR (binding confirmation, K d) (Bet_v_1 [3]) | specific binding to Bet v 1 (1H-15N HSQC spectra) (Bet_v_1 [3]) | further results |
| --- | --- | --- | --- | --- | --- | --- | --- |
| CCCCCCCCCCCCOS(=O)(=O)[O-].[Na+] [SDS, sodium dodecyl sulfate] | significantly accelerated | significantly accelerated | – | – | – | – | cathepsin S fluorogenic activity (cathepsin S; 10 nmol/L protease, 100 µmol/L ligand, 50 µmol/L substrate, pH 5.0, 2 mmol/L DTT (Figure 3A)): reduced the cleavage of fluorogenic substrates |
| lipopolysaccharide [LPS] | – | – | 185 µM | 185 µM | No significant interactions | No significant interactions | binding of Bet v 1 to biotinylated LPS (pull-down) (Bet_v_1 [4]): do not specifically bind |
| CCC(O)/C=C/C1C(O)CC(O)C1CCCCCCCC(=O)O (stereo not shown) [PPF1, F1‐phytoprostanes] | – | – | 2.4 µM | – | – | – | cathepsin S activity with phytohormones structurally related to PPE1 (cathepsin S; 0.1 mmol/L, 15 min (Figure 4B)): did not inhibit |
| O=S(=O)(O)c1cccc2cccc(Nc3ccccc3)c12 [ANS, 8‐anilinonaphthalene‐1‐sulfonic acid] | no detectable | no detectable | – | – | – | – | Kd (Bet_v_1 [2]; Binding affinity K d (SAW), Bet v 1 immobilized on chip, ligands in 5 mM sodium phosphate buffer pH 7.4): 32.7 µM; Kd (Bet_v_1 [2]; Kd (SAW, Fig. S1), Fig. S1 sensorgrams): 32.7 µM; Kd (Bet_v_1 [5]): 18.5 µM |
| lipoteichoic acid [LTA] | – | – | 200 µM | 200 µM | No significant interactions | No significant interactions | – |
| O=C1C[C@@H](c2ccc(O)cc2)Oc2cc(O)cc(O)c21 [Naringenin, naringenin] | minor | minor | – | – | – | – | – |
| CCCCCCCCCCCCCC(=O)O[C@H](CCCCCCCCCCC)CC(=O)O[C@@H]1[C@@H](NC(=O)C[C@@H](CCCCCCCCCCC)OC(=O)CCCCCCCCCCC)[C@H](OC[C@H]2O[C@H](OP(=O)(O)O)[C@H](NC(=O)C[C@H](O)CCCCCCCCCCC)[C@@H](OC(=O)C[C@H](O)CCCCCCCCCCC)[C@@H]2O)O[C@H](CO[C@]2(C(=O)O)C[C@@H](O[C@]3(C(=O)O)C[C@@H](O)[C@@H](O)[C@@H]([C@H](O)CO)O3)[C@@H](O)[C@@H]([C@H](O)CO)O2)[C@H]1OP(=O)(O)O [Kdo2, Kdo2‐Lipid A] | – | – | 380 µM | 380 µM | No significant interactions | No significant interactions | – |
